Several values for one entry are separate records, joined by “and”; a condition that tells them apart may be missing. Identical values can stand only once.
Legend:
[1] = tested on: Kappas-299 cells containing NPM-ALK fusion protein; assay: 4-day cell viability assay (CellTiter-Glo), Kappas-299; assay type: cell-based; settings: inhibition of cell growth, 4 days, multiple values from independent experiments
Protocol: (§1) The effect of compounds on cell viability was determined in a 4-day proliferation assay. Cells were maintained in RPMI1640 culture medium with 10% FBS at 37° C. and an atmosphere of 5% CO2. […] Cells were seeded in 96-well plates at a density of 3,000-10,000 cells/well in 75 μl of culture medium. Compounds were serially diluted in the appropriate medium, and 75 μl of the diluted compounds were added to the appropriate wells of the cell plate. After the addition of compounds, the cells were incubated at 37° C. in an atmosphere of 5% CO2 for 4 days. Cell viability was determined using the CellTiter-Glo® Luminescent Cell Viability Assay Kit (Promega, Madison, Wis.) (for KARPAS-299 cells) or WST (2-(2-methoxy-4-nitrophenyl)-3-(4-nitrophenyl)-5-(2,4-disulfophenyl)-2H-tetrazolium, monosodium salt) Cell Counting-8 Kit (Dojindo Molecular Technologies, Inc., Rockville, Md.) (for H3122 cells) according to the manufacturers' instructions.
For CellTiter-Glo assay, 100 μl of CellTiter-Glo® Reagent was added to each well, and then the plates were incubated at room temperature for 10-20 minutes. The luminescent signal was measured using a Tecan Infinite M1000 multimode microplate reader (Tecan, Morrisville, N.C.). The readings were normalized to the DMSO-treated cells and the IC50 was calculated by nonlinear regression analysis using the GraphPad Prism 5 software.
Cells were treated for four days and cell growth was determined using a CellTiter-Glo assay.

[2] = biological target: wild-type human ALK protein (cytoplasmic domain, amino acid 1058-1620, GST-fusion) (Homo sapiens, UniProt Q9UM73); assay: biochemical; settings: ALK IC50, wild-type ALK; 100 μM ATP
Protocol: Kinase activities of all enzymes were assessed using a Lance TR-FRET assay kit from Perkin Elmer Life Sciences (Waltham, Mass.). 2.5 μL of compound solution and 5 μL of protein solution were added into a black low volume 384 well microtiter plate which was incubated for 15 minutes with gentle shaking at room temperature, followed by adding 2.5 μL of fluorescently labeled peptide substrate (Ulight-[sequence]) and ATP mixture solution. The kinase reaction was performed in 50 mM HEPES (pH 7.5) with 1 mM EGTA, 1 mM MgCl2, and 2 mM DTT, 0.01% Tween-20 added right before the assay. […] The reaction was allowed to perform for 90 minutes in dark with gentle shaking at room temperature after which 10 μL of 20 mM EDTA and 2 nM Eu-W1024 anti-phosphotyrosine antibody (PT66) mixture solution in the detection buffer from the manufacturer was added to terminate the reaction and detect the phosphorylation of the peptide substrate. Final mixture was incubated in the dark for 1 hour before the plate was read on a Tecan Infinite M-1000 multi-mode plate reader (Tecan, Durham N.C.) with an excitation wavelength of 320 nm.

[3] = tested on: H3122 non-small cell lung cancer cell line harboring the EML4-ALK fusion gene; assay: 4-day cell viability assay (WST), H3122; assay type: cell-based; settings: Homo sapiens, NCI-H3122, 96 h, 4 days, read-out: IC50 (nM) in Inhibition of Tumor Cell Growth H3122 Cell line
Protocol: as §1
For WST assay, WST-8 reagent was added to each well at a final concentration of 10% (v/v), and then the plates were incubated at 37° C. for 1-2 hours for color development. The absorbance was measured at 450 nm using a SPECTRAmax PLUS plate reader (Molecular Devices, Sunnyvale, Calif.). The readings were normalized to the DMSO-treated cells and the half maximal inhibitory concentration (IC50) was calculated by nonlinear regression analysis using the GraphPad Prism 5 software (GraphPad Software, La Jolla, Calif.).
Cells were treated for four days and cell growth was determined using a WST assay.

Sequence of wild-type human ALK protein (cytoplasmic domain, amino acid 1058-1620, GST-fusion) (Q9UM73 1058-1620): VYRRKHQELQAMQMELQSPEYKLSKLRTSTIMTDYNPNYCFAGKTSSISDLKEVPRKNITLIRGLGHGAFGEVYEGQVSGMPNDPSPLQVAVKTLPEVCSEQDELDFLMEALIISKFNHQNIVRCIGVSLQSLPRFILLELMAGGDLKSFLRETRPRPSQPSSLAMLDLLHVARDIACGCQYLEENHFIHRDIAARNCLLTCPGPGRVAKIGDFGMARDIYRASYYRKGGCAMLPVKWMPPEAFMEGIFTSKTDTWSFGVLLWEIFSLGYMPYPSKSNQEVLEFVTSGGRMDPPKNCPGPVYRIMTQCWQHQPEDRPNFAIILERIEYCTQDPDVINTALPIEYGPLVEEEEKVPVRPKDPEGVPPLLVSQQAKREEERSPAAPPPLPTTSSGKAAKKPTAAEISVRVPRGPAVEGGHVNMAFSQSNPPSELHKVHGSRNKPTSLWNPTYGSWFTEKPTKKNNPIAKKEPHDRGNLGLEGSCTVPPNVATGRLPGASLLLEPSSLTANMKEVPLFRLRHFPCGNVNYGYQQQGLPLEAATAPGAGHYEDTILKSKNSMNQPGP

| SMILES | IC50 [2] | IC50 [3] | IC50 ([1]; NPM-ALK, 96 h) | IC50 [1] |
| --- | --- | --- | --- | --- |
| C=Cc1cc2c(=O)c3c4ccc(C#N)cc4[nH]c3n(C(C)C)c2cc1N1CCN(C)CC1 [ALK-46, 5-isoPropyl-3-(4-methylpiperazin-1-yl)-11-oxo-2-vinyl-6,11-dihydro-5H-indolo[2,3-b]quinoline-8-carbonitrile] | 1.8 nM and 1.5 nM | – | 60 nM | 102 nM |
| CCc1cc2c(=O)c3c4ccc(C#N)cc4[nH]c3n(C3CCCC3)c2cc1N1CCN(C)CC1 [ALK-48, 5-Cyclopentyl-2-ethyl-3-(4-methylpiperazin-1-yl)-11-oxo-6,11-dihydro-5H-indolo[2,3-b]quinoline-8-carbonitrile] | 15.1 nM | – | 70 nM | 84 nM |
| CCc1cc2c(=O)c3c4ccc(C#N)cc4[nH]c3n(CC)c2cc1N1CCN(C)CC1 [ALK-49, 2,5-Diethyl-3-(4-methylpiperazin-1-yl)-11-oxo-6,11-dihydro-5H-indolo[2,3-b]quinoline-8-carbonitrile] | 1.9 nM and 2.8 nM | – | 317 nM | 546 nM |
| C=C(C)c1cc2c(=O)c3c4ccc(C#N)cc4[nH]c3n(C(C)C)c2cc1N1CCN(C)CC1 [ALK-51, 5-isoPropyl-3-(4-methylpiperazin-1-yl)-11-oxo-2-(prop-1-en-2-yl)-6,11-dihydro-5H-indolo[2,3-b]quinoline-8-carbonitrile] | 20.5 nM | – | 70 nM | 99 nM |
| CCOc1cc2c(=O)c3c4ccc(C#N)cc4[nH]c3n(C3CCCC3)c2cc1N1CCN(C)CC1 [ALK-54, 5-Cyclopentyl-2-ethoxy-3-(4-methylpiperazin-1-yl)-11-oxo-6,11-dihydro-5H-indolo[2,3-b]quinoline-8-carbonitrile] | 24.7 nM | – | 63 nM | – |
| CC(C)n1c2cc(N3CCN(C)CC3)c(OC(F)F)cc2c(=O)c2c3ccc(C#N)cc3[nH]c21 [ALK-59, 2-(Difluoromethoxy)-5-isopropyl-3-(4-methylpiperazin-1-yl)-11-oxo-6,11-dihydro-5H-indolo[2,3-b]quinoline-8-carbonitrile] | 1.6 nM | – | 447 nM | – |
| COc1cc2c(=O)c3c4ccc(C#N)cc4[nH]c3n(C3CCC3)c2c(F)c1N1CCC(N2CCOCC2)CC1 [ALK-74, 5-Cyclobutyl-4-fluoro-2-methoxy-3-(4-morpholinopiperidin-1-yl)-11-oxo-6,11-dihydro-5H-indolo[2,3-b]quinoline-8-carbonitrile] | 8.4 nM | 84 nM | 98 nM | – |
| COc1cc2c(=O)c3c4ccc(C#N)cc4[nH]c3n(C3CCC3)c2c(F)c1N1CCN(C)CC1 [ALK-75, 5-Cyclobutyl-4-fluoro-2-methoxy-3-(4-methylpiperazin-1-yl)-11-oxo-6,11-dihydro-5H-indolo[2,3-b]quinoline-8-carbonitrile] | 3.6 nM | 35.9 nM | 22 nM | – |
| CCOc1cc2c(=O)c3c4ccc(C#N)cc4[nH]c3n(C(C)C)c2c(F)c1N1CCC(N2CCOCC2)CC1 [ALK-76, 2-Ethoxy-4-fluoro-5-isopropyl-3-(4-morpholinopiperidin-1-yl)-11-oxo-6,11-dihydro-5H-indolo[2,3-b]quinoline-8-carbonitrile] | 2.5 nM | 85 ± 11 nM | 35 nM | – |
| CCc1cc2c(=O)c3c4ccc(C#N)cc4[nH]c3n(C(C)C)c2cc1N1CCN(C2COC2)CC1 [ALK-77, 2-Ethyl-5-isopropyl-3-(4-(oxetan-3-yl)piperazin-1-yl)-11-oxo-6,11-dihydro-5H-indolo[2,3-b]quinoline-8-carbonitrile] | 1.1 nM | 25.9 nM | 31 nM | – |
| CCc1cc2c(=O)c3c4ccc(C#N)cc4[nH]c3n(C(C)C)c2cc1N1CCOCC1 [ALK-82, 2-Ethyl-5-isopropyl-3-morpholino-11-oxo-6,11-dihydro-5H-indolo[2,3-b]quinoline-8-carbonitrile] | 2.3 nM | – | 46 nM | – |
| CC(C)Oc1cc2c(=O)c3c4ccc(C#N)cc4[nH]c3n(C(C)C)c2c(F)c1N1CCC(N2CCOCC2)CC1 [ALK-85, 4-Fluoro-2-isopropoxy-5-isopropyl-3-(4-morpholinopiperidin-1-yl)-11-oxo-6,11-dihydro-5H-indolo[2,3-b]quinoline-8-carbonitrile] | 22.9 nM | 148 ± 26 nM | 66 nM | – |
| CCc1cc2c(=O)c3c4ccc(C#N)cc4[nH]c3n(C(C)C)c2cc1C1CCN(C2COC2)CC1 [CJ-2238, 2-Ethyl-5-isopropyl-3-(1-(oxetan-3-yl)piperidin-4-yl)-11-oxo-6,11-dihydro-5H-indolo[2,3-b]quinoline-8-carbonitrile] | 2.6 nM | 1040 nM | 231 nM | – |
| CCc1cc2c(=O)c3c4ccc(C#N)cc4[nH]c3n(C(C)C)c2cc1C1CCN(C2CCOCC2)CC1 [CJ-2240, 2-Ethyl-5-isopropyl-11-oxo-3-(1-(tetrahydro-2H-pyran-4-yl)piperidin-4-yl)-6,11-dihydro-5H-indolo[2,3-b]quinoline-8-carbonitrile] | 0.78 nM | 33 ± 12 nM | 35 nM | – |

More lines, main results first:

| IC50 [2] | IC50 [3] | SMILES | IC50 ([1]; NPM-ALK, 96 h) | IC50 [1] |
| --- | --- | --- | --- | --- |
| 0.7 nM | 13.1 nM | CCc1cc2c(=O)c3c4ccc(C#N)cc4[nH]c3n(C(C)C)c2cc1N1CCC(N2CCOCC2)CC1 [ALK-78, 2-Ethyl-5-isopropyl-3-(4-morpholinopiperidin-1-yl)-11-oxo-6,11-dihydro-5H-indolo[2,3-b]quinoline-8-carbonitrile] | 25 nM | – |
| 0.11 nM | 2 ± 1 nM | CCc1cc2c(=O)c3c4ccc(C#N)cc4[nH]c3n(C(C)C)c2cc1N1CCC(N2CCN(C)CC2)CC1 [ALK-79, 2-Ethyl-5-isopropyl-3-(4-(4-methylpiperazin-1-yl)piperidin-1-yl)-11-oxo-6,11-dihydro-5H-indolo[2,3-b]quinoline-8-carbonitrile] | 9.6 nM | – |
| 0.22 nM | 3 ± 1 nM | CCc1cc2c(=O)c3c4ccc(C#N)cc4[nH]c3n(C(C)C)c2cc1N1CCN(C(C)C)CC1 [ALK-80, 2-Ethyl-5-isopropyl-3-(4-isopropylpiperazin-1-yl)-11-oxo-6,11-dihydro-5H-indolo[2,3-b]quinoline-8-carbonitrile] | 7.6 nM | – |
| 0.1 nM | – | CCc1cc2c(=O)c3c4ccc(C#N)cc4[nH]c3n(C(C)C)c2cc1N1CCNCC1 [ALK-81, 2-Ethyl-5-isopropyl-11-oxo-3-(piperazin-1-yl)-6,11-dihydro-5H-indolo[2,3-b]quinoline-8-carbonitrile] | 440 nM | – |
| 0.26 nM | – | CCc1cc2c(=O)c3c4ccc(C#N)cc4[nH]c3n(C(C)C)c2cc1C1CCNCC1 [CJ-2204, 2-Ethyl-5-isopropyl-11-oxo-3-(piperidin-4-yl)-6,11-dihydro-5H-indolo[2,3-b]quinoline-8-carbonitrile] | 768 nM | – |
| 0.52 nM | 17 ± 8 nM | CCc1cc2c(=O)c3c4ccc(C#N)cc4[nH]c3n(C(C)C)c2cc1C1CCN(C)CC1 [CJ-2217, 2-Ethyl-5-isopropyl-3-(1-methylpiperidin-4-yl)-11-oxo-6,11-dihydro-5H-indolo[2,3-b]quinoline-8-carbonitrile] | 14 nM | – |
| 0.77 nM | 36 ± 13 nM | CCc1cc2c(=O)c3c4ccc(C#N)cc4[nH]c3n(C(C)C)c2cc1C1CCN(C(C)C)CC1 [CJ-2239, 2-Ethyl-5-isopropyl-3-(1-isopropylpiperidin-4-yl)-11-oxo-6,11-dihydro-5H-indolo[2,3-b]quinoline-8-carbonitrile] | 16 nM | – |
| 0.32 nM | 154 nM | CCc1cc2c(=O)c3c4ccc(C#N)cc4[nH]c3n(C(C)C)c2cc1C1CCN(CCO)CC1 [CJ-2241, 2-Ethyl-3-(1-(2-hydroxyethyl)piperidin-4-yl)-5-isopropyl-11-oxo-6,11-dihydro-5H-indolo[2,3-b]quinoline-8-carbonitrile] | 292 nM | – |

Reference: patent publication US9783539B2, “Indoloquinolone compounds as anaplastic lymphoma kinase (ALK) inhibitors” (Jiangsu Ascentage Biomed Development Inc., priority 2014, dated 2017)
